Measured values as given in the supplement of paper PMC8967900.

Assays:
Experiment in all cases: selective drug sensitivity score (sDSS, relative to normal bone marrow) (sDSS (score)); higher = more potent and effective on the cell line relative to normal bone marrow cells
Details in all cases: 72 h
380 = test system: 380
697 = test system: 697
ALL-SIL = test system: ALL-SIL
COG-LL-319h = test system: COG-LL-319h
COG-LL-332h = test system: COG-LL-332h
COG-LL-394h = test system: COG-LL-394h
COG-LL-402h = test system: COG-LL-402h
HAL-01 = test system: HAL-01
JURKAT = test system: JURKAT
KASUMI-10 = test system: KASUMI-10
KASUMI-2 = test system: KASUMI-2
MOLT-16 = test system: MOLT-16
MOLT-4 = test system: MOLT-4
NALM-6 = test system: NALM-6
P30-OHKUBO = test system: P30-OHKUBO
PEER = test system: PEER
RCH-ACV = test system: RCH-ACV
REH = test system: REH
SUP-B15 = test system: SUP-B15
TMD5 = test system: TMD5
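Also: ALL cell lines in 384-well plates, five doses spanning 10,000-fold, each plate scaled between vehicle and 100 µmol/L benzalkonium chloride controls, sDSS an adapted area-under-curve metric.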

SMILES	selective drug sensitivity score 380	selective drug sensitivity score 697	selective drug sensitivity score (ALL-SIL)	selective drug sensitivity score (COG-LL-319h)	selective drug sensitivity score (COG-LL-332h)	selective drug sensitivity score (COG-LL-394h)	selective drug sensitivity score (COG-LL-402h)	selective drug sensitivity score (HAL-01)	selective drug sensitivity score (JURKAT)	selective drug sensitivity score (KASUMI-10)	selective drug sensitivity score (KASUMI-2)	selective drug sensitivity score (MOLT-16)	selective drug sensitivity score (MOLT-4)	selective drug sensitivity score (NALM-6)	selective drug sensitivity score (P30-OHKUBO)	selective drug sensitivity score (PEER)	selective drug sensitivity score (RCH-ACV)	selective drug sensitivity score (REH)	selective drug sensitivity score (SUP-B15)	selective drug sensitivity score (TMD5)
CNC(=O)CN1CCC(Oc2cc3c(Nc4cccc(Cl)c4F)ncnc3cc2OC)CC1 [Sapitinib] (top concentration 1000 nM)	0	0	0	0	0	0	0	0	0	0	0	0	0	0	0	0	0	0	0	0
CC[C@@H](C(=O)[C@@H](C)[C@@H](O)[C@H](C)[C@@H]1O[C@@H]([C@@H](CC)C(=O)O)CC[C@@H]1C)[C@H]1O[C@]2(C=C[C@@H](O)[C@]3(CC[C@@](C)([C@H]4CC[C@](O)(CC)[C@H](C)O4)O3)O2)[C@H](C)C[C@@H]1C [Salinomycin] (top concentration 50000 nM)	2.6	-0.9	0.6	-0.8	-2.9	3.2	-4	5.6	3.1	1.8	-23.2	10.7	-5.3	-4.9	-7.8	10.5	-15.4	-13	-11.1	1.1
COc1cc([C@@H]2c3cc4c(cc3[C@@H](O[C@@H]3O[C@@H]5CO[C@@H](c6cccs6)O[C@H]5[C@H](O)[C@H]3O)[C@H]3COC(=O)[C@H]23)OCO4)cc(OC)c1O [Teniposide] (top concentration 10000 nM)	0	0	0	0	0	0	0.1	0	0	0	2.4	0	0	0	0	0	0	0	0	0
Nc1nc(OCc2cc(Br)cs2)c2[nH]cnc2n1 [Lomeguatrib] (top concentration 10000 nM)	0	0.4	0	0	0	0	0	0	0	0	0	0	0	0	0	0	0.8	1.2	0	0
CCOC(=O)C1=CCCC[C@H]1S(=O)(=O)Nc1ccc(F)cc1Cl [Resatorvid] (top concentration 10000 nM)	0	0	0	0	0	0	0.4	0	0	0	0	0	0	0	0	0	0	0	0	0
O=C(c1cc(Cc2n[nH]c(=O)c3ccccc23)ccc1F)N1CCN(C(=O)C2CC2)CC1 [Olaparib] (top concentration 10000 nM)	26.8	6.78	-0.02	11.7	4.98	-1.32	4.38	4.88	1.58	2.88	4.78	9.08	4.18	1.48	2.98	1.28	7.38	1.48	13.1	4.48
CCn1c(-c2nonc2N)nc2cnc(Oc3cccc(NC(=O)c4ccc(OCCN5CCOCC5)cc4)c3)cc21 (top concentration 10000 nM)	7.46	18.3	4.06	17.5	11	1.56	7.66	9.96	3.76	-2.74	14.3	12.1	1.86	6.76	10.9	16.6	17.1	4.56	19.3	6.36
